Source: patent US12473304B2, “Heterocyclic PAD4 inhibitors” (BRISTOL-MYERS SQUIBB COMPANY, priority 2020, dated 2025)

The compounds below were run against human PAD4 (hPAD4) (Homo sapiens (Human), UniProt Q9UM07) (assay: RFMS Human PAD4 Functional Assay 1). Details: RFMS assay 1; 5 nM hPAD4, 250 μM BAEE substrate, 50 μM calcium, 37° C.
Assay type: biochemical
How it was run: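 Recombinant hPAD4 (5 nM) was preincubated with compound (top 50 μM, 0.5% DMSO) for 30 min at 37 °C, then reacted with 250 μM BAEE for 90 min at 37 °C in pH 7.5 HEPES buffer with 50 μM calcium and 5 μM TPEN. Product was derivatized with phenyl glyoxal and quantified by RapidFire MS.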

human PAD4 (hPAD4), sequence (Q9UM07 whole entry): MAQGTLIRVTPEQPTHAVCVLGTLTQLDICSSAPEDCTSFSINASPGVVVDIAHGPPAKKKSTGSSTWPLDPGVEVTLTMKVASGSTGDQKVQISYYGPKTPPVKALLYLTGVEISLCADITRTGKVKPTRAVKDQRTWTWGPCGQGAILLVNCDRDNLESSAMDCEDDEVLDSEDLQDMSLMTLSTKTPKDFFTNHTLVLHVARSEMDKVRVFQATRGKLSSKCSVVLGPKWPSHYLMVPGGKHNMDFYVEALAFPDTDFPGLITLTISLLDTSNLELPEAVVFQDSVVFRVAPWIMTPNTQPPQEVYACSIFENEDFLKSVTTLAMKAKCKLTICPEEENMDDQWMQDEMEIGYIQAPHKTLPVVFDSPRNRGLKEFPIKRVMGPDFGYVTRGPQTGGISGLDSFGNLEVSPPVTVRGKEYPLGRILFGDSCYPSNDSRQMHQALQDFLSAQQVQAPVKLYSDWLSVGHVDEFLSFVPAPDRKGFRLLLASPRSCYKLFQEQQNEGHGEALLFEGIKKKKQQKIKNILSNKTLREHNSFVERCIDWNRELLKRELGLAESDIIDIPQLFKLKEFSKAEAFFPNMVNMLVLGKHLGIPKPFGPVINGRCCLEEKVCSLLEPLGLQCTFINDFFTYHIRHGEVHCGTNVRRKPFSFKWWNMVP

IC50 | Structure (SMILES)
0.13 µM | Cc1c(-c2cc3cccc(C4CCN(C(=O)COC(C)C)CC4)c3n2CC2CC2)nn2cc(C(=O)N3C[C@H](N)C[C@@H](F)C3)ccc12 [Example 431, 1-(4-(2-(6-((3R,5R)-3-amino-5-fluoropiperidine-1-carbonyl)-3-methylpyrazolo[1,5-a]pyridin-2-yl)-1-(cyclopropylmethyl)-1H-indol-7-yl)piperidin-1-yl)-2-isopropoxyethan-1-one]
0.2 µM | Cc1c(-c2cc3cccc(C4CCN(C(=O)COC(C)C)CC4)c3n2CC2CC2)nn2cc(C(=O)N3CCC[C@@H](N)C3)ccc12 [Example 432, (R)-1-(4-(2-(6-(3-aminopiperidine-1-carbonyl)-3-methylpyrazolo[1,5-a]pyridin-2-yl)-1-(cyclopropylmethyl)-1H-indol-7-yl)piperidin-1-yl)-2-isopropoxyethan-1-one]
0.14 µM | Cc1c(-c2cc3cccc(C4CCN(C(=O)C(C)(C)CO)CC4)c3n2CC2CC2)nn2cc(C(=O)N3C[C@H](N)C[C@@H](F)C3)ccc12 [Example 433, 1-(4-(2-(6-((3R,5R)-3-amino-5-fluoropiperidine-1-carbonyl)-3-methylpyrazolo[1,5-a]pyridin-2-yl)-1-(cyclopropylmethyl)-1H-indol-7-yl)piperidin-1-yl)-3-hydroxy-2,2-dimethylpropan-1-one]
0.25 µM | Cc1c(-c2cc3cccc(C4CCN(C(=O)C(C)(C)CO)CC4)c3n2CC2CC2)nn2cc(C(=O)N3CCC[C@@H](N)C3)ccc12 [Example 434, (R)-1-(4-(2-(6-(3-aminopiperidine-1-carbonyl)-3-methylpyrazolo[1,5-a]pyridin-2-yl)-1-(cyclopropylmethyl)-1H-indol-7-yl)piperidin-1-yl)-3-hydroxy-2,2-dimethylpropan-1-one]
0.38 µM | Cc1c(-c2cc3cccc(C4CCN(C(=O)C(C)(C)O)CC4)c3n2CC2CC2)nn2cc(C(=O)N3C[C@H](N)C[C@@H](F)C3)ccc12 [Example 435, 1-(4-(2-(6-((3R,5R)-3-amino-5-fluoropiperidine-1-carbonyl)-3-methylpyrazolo[1,5-a]pyridin-2-yl)-1-(cyclopropylmethyl)-1H-indol-7-yl)piperidin-1-yl)-2-hydroxy-2-methylpropan-1-one]
0.3 µM | Cc1c(-c2cc3cccc(C4CCN(C(=O)C(C)(C)O)CC4)c3n2CC2CC2)nn2cc(C(=O)N3CCC[C@@H](N)C3)ccc12 [Example 436, (R)-1-(4-(2-(6-(3-aminopiperidine-1-carbonyl)-3-methylpyrazolo[1,5-a]pyridin-2-yl)-1-(cyclopropylmethyl)-1H-indol-7-yl)piperidin-1-yl)-2-hydroxy-2-methylpropan-1-one]
0.11 µM | Cc1c(-c2cc3cccc(C4CCN(C(=O)CCO)CC4)c3n2CC2CC2)nn2cc(C(=O)N3CCC[C@@H](N)C3)ccc12 [Example 437, (R)-1-(4-(2-(6-(3-aminopiperidine-1-carbonyl)-3-methylpyrazolo[1,5-a]pyridin-2-yl)-1-(cyclopropylmethyl)-1H-indol-7-yl)piperidin-1-yl)-3-hydroxypropan-1-one]
0.03 µM | Cc1c(-c2cc3cccc(C4CCN(C(=O)CO)CC4)c3n2CC2CC2)nn2cc(C(=O)N3C[C@H](N)C[C@@H](F)C3)ccc12 [Example 438, 1-(4-(2-(6-((3R,5R)-3-amino-5-fluoropiperidine-1-carbonyl)-3-methylpyrazolo[1,5-a]pyridin-2-yl)-1-(cyclopropylmethyl)-1H-indol-7-yl)piperidin-1-yl)-2-hydroxyethan-1-one]
0.03 µM | Cc1c(-c2cc3cccc(C4CCN(C(=O)CO)CC4)c3n2CC2CC2)nn2cc(C(=O)N3CCC[C@@H](N)C3)ccc12 [Example 439, (R)-1-(4-(2-(6-(3-aminopiperidine-1-carbonyl)-3-methylpyrazolo[1,5-a]pyridin-2-yl)-1-(cyclopropylmethyl)-1H-indol-7-yl)piperidin-1-yl)-2-hydroxyethan-1-one]
0.06 µM | Cc1c(-c2cc3cccc(C4CCN(C(=O)[C@@H]5CCC[C@H](O)C5)CC4)c3n2CC2CC2)nn2cc(C(=O)N3CCC[C@@H](N)C3)ccc12 [Example 440, ((R)-3-aminopiperidin-1-yl)(2-(1-(cyclopropylmethyl)-7-(1-((1R,3S)-3-hydroxycyclohexane-1-carbonyl)piperidin-4-yl)-1H-indol-2-yl)-3-methylpyrazolo[1,5-a]pyridin-6-yl)methanone]
0.06 µM | CCOCC(=O)N1CCC(c2cccc3cc(-c4nn5cc(C(=O)N6CCC[C@@H](N)C6)ccc5c4C)n(CC4CC4)c23)CC1 [Example 441, (R)-1-(4-(2-(6-(3-aminopiperidine-1-carbonyl)-3-methylpyrazolo[1,5-a]pyridin-2-yl)-1-(cyclopropylmethyl)-1H-indol-7-yl)piperidin-1-yl)-2-ethoxyethan-1-one]
0.03 µM | CCOCC(=O)N1CCC(c2cccc3cc(-c4nn5cc(C(=O)N6C[C@H](N)C[C@@H](F)C6)ccc5c4C)n(CC4CC4)c23)CC1 [Example 442, 1-(4-(2-(6-((3R,5R)-3-amino-5-fluoropiperidine-1-carbonyl)-3-methylpyrazolo[1,5-a]pyridin-2-yl)-1-(cyclopropylmethyl)-1H-indol-7-yl)piperidin-1-yl)-2-ethoxyethan-1-one]
0.13 µM | Cc1c(-c2cc3cccc(C4CCN(C(=O)[C@H]5CC[C@H](O)CC5)CC4)c3n2CC2CC2)nn2cc(C(=O)N3CCC[C@@H](N)C3)ccc12 [Example 443, ((R)-3-aminopiperidin-1-yl)(2-(1-(cyclopropylmethyl)-7-(1-((1r,4r)-4-hydroxycyclohexane-1-carbonyl)piperidin-4-yl)-1H-indol-2-yl)-3-methylpyrazolo[1,5-a]pyridin-6-yl)methanone]
0.01 µM | Cc1c(-c2cc3cccc(C4CCN(C(=O)[C@H]5CC[C@@H](O)CC5)CC4)c3n2CC2CC2)nn2cc(C(=O)N3C[C@H](N)C[C@@H](F)C3)ccc12 [Example 444, ((3R,5R)-3-amino-5-fluoropiperidin-1-yl)(2-(1-(cyclopropylmethyl)-7-(1-((1s,4s)-4-hydroxycyclohexane-1-carbonyl)piperidin-4-yl)-1H-indol-2-yl)-3-methylpyrazolo[1,5-a]pyridin-6-yl)methanone]
0.16 µM | Cc1c(-c2cc3cccc(C4CCN(C(=O)CC(C)C)CC4)c3n2CC2CC2)nn2cc(C(=O)N3C[C@H](N)C[C@@H](F)C3)ccc12 [Example 445, 1-(4-(2-(6-((3R,5R)-3-amino-5-fluoropiperidine-1-carbonyl)-3-methylpyrazolo[1,5-a]pyridin-2-yl)-1-(cyclopropylmethyl)-1H-indol-7-yl)piperidin-1-yl)-3-methylbutan-1-one]
0.13 µM | Cc1c(-c2cc3cccc(C4CCN(C(=O)CC(C)C)CC4)c3n2CC2CC2)nn2cc(C(=O)N3CCC[C@@H](N)C3)ccc12 [Example 446, (R)-1-(4-(2-(6-(3-aminopiperidine-1-carbonyl)-3-methylpyrazolo[1,5-a]pyridin-2-yl)-1-(cyclopropylmethyl)-1H-indol-7-yl)piperidin-1-yl)-3-methylbutan-1-one]
0.17 µM | Cc1c(-c2cc3cccc(C4CCN(C(=O)[C@H]5CCC[C@@H](O)C5)CC4)c3n2CC2CC2)nn2cc(C(=O)N3CCC[C@@H](N)C3)ccc12 [Example 447, ((R)-3-aminopiperidin-1-yl)(2-(1-(cyclopropylmethyl)-7-(1-((1S,3R)-3-hydroxycyclohexane-1-carbonyl)piperidin-4-yl)-1H-indol-2-yl)-3-methylpyrazolo[1,5-a]pyridin-6-yl)methanone]
0.07 µM | Cc1c(-c2cc3cccc(C4CCN(C(=O)[C@H]5CCC[C@@H](O)C5)CC4)c3n2CC2CC2)nn2cc(C(=O)N3C[C@H](N)C[C@@H](F)C3)ccc12 [Example 448, ((3R,5R)-3-amino-5-fluoropiperidin-1-yl)(2-(1-(cyclopropylmethyl)-7-(1-((1S,3R)-3-hydroxycyclohexane-1-carbonyl)piperidin-4-yl)-1H-indol-2-yl)-3-methylpyrazolo[1,5-a]pyridin-6-yl)methanone]
0.05 µM | Cc1c(-c2cc3cccc(C4CCN(C(=O)[C@@H]5CCC[C@H](O)C5)CC4)c3n2CC2CC2)nn2cc(C(=O)N3C[C@H](N)C[C@@H](F)C3)ccc12 [Example 449, ((3R,5R)-3-amino-5-fluoropiperidin-1-yl)(2-(1-(cyclopropylmethyl)-7-(1-((1R,3S)-3-hydroxycyclohexane-1-carbonyl)piperidin-4-yl)-1H-indol-2-yl)-3-methylpyrazolo[1,5-a]pyridin-6-yl)methanone]
0.05 µM | Cc1c(-c2cc3cccc(C4CCN(C(=O)[C@H]5CC[C@@H](O)CC5)CC4)c3n2CC2CC2)nn2cc(C(=O)N3CCC[C@@H](N)C3)ccc12 [Example 450, ((R)-3-aminopiperidin-1-yl)(2-(1-(cyclopropylmethyl)-7-(1-((2s,4s)-4-hydroxycyclohexane-1-carbonyl)piperidin-4-yl)-1H-indol-2-yl)-3-methylpyrazolo[1,5-a]pyridin-6-yl)methanone]
0.01 µM | Cc1c(-c2cc3cccc(C4CCN(C(=O)[C@H]5CC[C@H](O)CC5)CC4)c3n2CC2CC2)nn2cc(C(=O)N3C[C@H](N)C[C@@H](F)C3)ccc12 [Example 451, ((3R,5R)-3-amino-5-fluoropiperidin-1-yl)(2-(1-(cyclopropylmethyl)-7-(1-((1r,4r)-4-hydroxycyclohexane-1-carbonyl)piperidin-4-yl)-1H-indol-2-yl)-3-methylpyrazolo[1,5-a]pyridin-6-yl)methanone]
0.03 µM | CC(=O)N1CCC(c2cccc3cc(-c4nn5cc(C(=O)N6C[C@H](N)C[C@@H](F)C6)ccc5c4C)n(CC4CC4)c23)CC1 [Example 452, 1-(4-(2-(6-((3R,5R)-3-amino-5-fluoropiperidine-1-carbonyl)-3-methylpyrazolo[1,5-a]pyridin-2-yl)-1-(cyclopropylmethyl)-1H-indol-7-yl)piperidin-1-yl)ethan-1-one]
